Reference: patent publication US10266511B2, “No-releasing nitrooxy-chromene conjugates” (priority 2014, dated 2019)

Test system: PGE2 production
Test: Rat air-pouch model for acute inflammation (exudate PGE2 by ELISA)
Assay type: in vivo, Sprague-Dawley rats
Conditions: oral gavage 0.01 mmol/kg 2 h before carrageenan, exudate 4 h after carrageenan
Description: A study of chromene release is assessed by measurement of PGE2 levels, which are indicative of inflammatory response. Compounds of the present invention lower the inflammatory response by selective COX-2 inhibition, decreasing PGE-2 levels in patients.
Animals: Sprague-Dawley rats (Charles River Laboratories, R #3234, PO #738990, male, 160-180 g) are received, individually examined, and housed in cages of five rats each. The rats are ear notched for identification purposes.
Compounds and dosing solutions: The vehicle is prepared by dissolving 40 g (2-hydroxypropyl)-β-cyclodextrin (HP-β-CD, Sigma, Cat. 332593, lot MKBJ5858V) in 160 mL sterile saline for injection, USP (Hospira, lot 26-801-FW) making a 25% solution which is filter sterilized (0.2 μm, Nalgene, Cat. 151-4020, lot 1095610). A 1% carrageenan solution is prepared by dissolving 0.6 g λ-carrageenan (Fluka, Cat. 22049, lot 1318338) in hot 60 mL sterile saline for injection, USP. This solution is stored at 4-8° C. Test compounds are dissolved in DMSO (Fisher Scientific, Cat. D128-500, lot 874999) to make 75 mM stocks. 0.25 mL of compound DMSO stocks are mixed with 12.5 mL of HP-β-CD solution at 50° C. (maximum DMSO concentration is 2% of the final volume of vehicle,). […]
Day 6—Compound administration and carrageenan insult: At commencement of the study, each rat is weighed and sorted into treatment groups of 5 rats/group based upon average weight. […] The pouch is gently massaged, the exudate immediately removed, and exudate volume recorded. […]
Data analysis: The exudate samples are thawed to room temperature and assayed by ELISA for PGE2 (R&D Systems, Cat. KGE004B, lot 307711). Statistical significance of treatments on mean exudate volumes are determined by comparison of means for treatment groups with vehicle group. Mean cytokine concentrations and standard deviations are determined for each group. Statistical significance of treatments on cytokine concentrations are determined for each compound group compared to vehicle group. Statistical significance (p-value) is calculated vs control groups by Student's t-Test. […]

Row | Structure (SMILES) | % Inhibition of PGE2 production relative to control (+/−S.D.)
1 | CC(C)(C)c1cc2c(cc1Cl)C=C(C(=O)OC(CO[N+](=O)[O-])CO[N+](=O)[O-])C(C(F)(F)F)O2 (stereo not drawn) [Example 22a, 1,3-bis(Nitrooxy)propan-2-yl 7-(tert-butyl)-6-chloro-2-(trifluoromethyl)-2H-chromene-3-carboxylate] | 75.4 (+/−9.1) %
2 | CC(C)(C)c1cc2c(cc1Cl)C=C(C(=O)O[C@H]1CO[C@H]3[C@@H]1OC[C@H]3O[N+](=O)[O-])[C@@H](C(F)(F)F)O2 [Example 33, (S)-(3S,3aR,6R,6aS)-6-(nitrooxy)hexahydrofuro[3,2-b]furan-3-yl 7-(tert-butyl)-6-chloro-2-(trifluoromethyl)-2H-chromene-3-carboxylate] | 91.8 (+/−4.9) %
3 | CC(C)(C)c1cc2c(cc1Cl)C=C(C(=O)O[C@H]1CO[C@H]3[C@@H]1OC[C@H]3O[N+](=O)[O-])C(C(F)(F)F)O2 (stereo partly drawn) [Example 33a, (3S,3aR,6R,6aS)-6-(nitrooxy)hexahydrofuro[3,2-b]furan-3-yl 7-(tert-butyl)-6-chloro-2-(trifluoromethyl)-2H-chromene-3-carboxylate] | 76.7 (+/−7.8) %
